System: MV-4-11 cells
Test: Gene expression microarray analysis (Affymetrix PrimeView) and GSEA
Assay type: cell-based, human
Set-up: RFU PODN (11730768_x_at) / Fold change /veh PODN (11730768_x_at) / RFU LINC00158 (11744669_a_at) / Fold change /veh LINC00158 (11744669_a_at) / RFU DUSP10 (11751237_a_at) / Fold change /veh DUSP10 (11751237_a_at) / RFU ID3 (11757404_x_at) / Fold change /veh ID3 (11757404_x_at) / RFU PLEKHG5 (11737974_s_at) / Fold change /veh PLEKHG5 (11737974_s_at) / RFU LRRC4B (11730491_at) / Fold change /veh LRRC4B (11730491_at) / RFU GIMAP4 (11747438_a_at) / Fold change /veh GIMAP4 (11747438_a_at) / RFU KRT8 (11758183_x_at) / Fold change /veh KRT8 (11758183_x_at) / RFU CNN1 (11734310_a_at) / Fold change /veh CNN1 (11734310_a_at) / RFU VPS37D (11726825_at) / Fold change /veh VPS37D (11726825_at) / RFU C10orf10 (11716522_x_at) / Fold change /veh C10orf10 (11716522_x_at) / RFU KIR2DL2 /// KIR2DL4 /// KIR2DL5A /// KIR2DL5B /// KIR2DS1 /// KIR2DS2 /// KIR2DS3 /// KIR2DS4 /// KIR3DL3 /// KIR3DL3 /// KIR3DS1 (11738374_at) / Fold change /veh KIR2DL2 /// KIR2DL4 /// KIR2DL5A /// KIR2DL5B /// KIR2DS1 /// KIR2DS2 /// KIR2DS3 /// KIR2DS4 /// KIR3DL3 /// KIR3DL3 /// KIR3DS1 (11738374_at) / RFU C1QL1 (11718748_at) / Fold change /veh C1QL1 (11718748_at) / RFU TMPRSS4 (11747572_a_at) / Fold change /veh TMPRSS4 (11747572_a_at) / RFU HAMP (11756126_x_at) / Fold change /veh HAMP (11756126_x_at) / RFU RNFT2 (11725882_a_at) / Fold change /veh RNFT2 (11725882_a_at) / RFU NR4A2 (11747474_a_at) / Fold change /veh NR4A2 (11747474_a_at) / RFU ABCC12 (11746883_a_at) / Fold change /veh ABCC12 (11746883_a_at) / RFU TMEM136 (11760407_x_at) / Fold change /veh TMEM136 (11760407_x_at) / RFU CLDN22 /// WWC2 (11732394_at) / Fold change /veh CLDN22 /// WWC2 (11732394_at) / RFU HLA-DPB1 (11760878_x_at) / Fold change /veh HLA-DPB1 (11760878_x_at) / RFU SPINT1 (11716480_a_at) / Fold change /veh SPINT1 (11716480_a_at) / RFU GAP43 (11754022_s_at) / Fold change /veh GAP43 (11754022_s_at) / RFU A4GNT (11735810_at) / Fold change /veh A4GNT (11735810_at) / RFU PRB3 (11715151_x_at) / Fold change /veh PRB3 (11715151_x_at) / RFU TUBB4B (11761932_at) / Fold change /veh TUBB4B (11761932_at) / RFU CAPN14 (11732068_a_at) / Fold change /veh CAPN14 (11732068_a_at) / RFU TMCC2 (11721928_a_at) / Fold change /veh TMCC2 (11721928_a_at) / RFU IRGQ (11745062_a_at) / Fold change /veh IRGQ (11745062_a_at) / RFU FAM174B (11720279_a_at) / Fold change /veh FAM174B (11720279_a_at) / RFU TMPRSS4 (11748680_a_at) / Fold change /veh TMPRSS4 (11748680_a_at) / RFU FAM212B (11763350_a_at) / Fold change /veh FAM212B (11763350_a_at) / RFU PLEKHG5 (11743358_a_at) / Fold change /veh PLEKHG5 (11743358_a_at) / RFU ZSCAN30 (11745921_a_at) / Fold change /veh ZSCAN30 (11745921_a_at) / RFU CMKLR1 (11741424_a_at) / Fold change /veh CMKLR1 (11741424_a_at) / RFU LOC101060620 /// MAPK8IP1 (11723275_at) / Fold change /veh LOC101060620 /// MAPK8IP1 (11723275_at) / RFU SPTSSB (11747773_x_at) / Fold change /veh SPTSSB (11747773_x_at) / RFU PRSS12 (11739890_at) / Fold change /veh PRSS12 (11739890_at) / RFU BIN1 (11741810_x_at) / Fold change /veh BIN1 (11741810_x_at) / RFU WNT11 (11732464_a_at) / Fold change /veh WNT11 (11732464_a_at) / RFU C10orf10 (11716521_a_at) / Fold change /veh C10orf10 (11716521_a_at) / RFU C5orf56 (11738089_at) / Fold change /veh C5orf56 (11738089_at) / RFU CYB561 (11721691_x_at) / Fold change /veh CYB561 (11721691_x_at) / RFU ANKRD19P (11752326_a_at) / Fold change /veh ANKRD19P (11752326_a_at) / RFU OR2T12 /// OR2T33 /// OR2T8 (11738714_s_at) / Fold change /veh OR2T12 /// OR2T33 /// OR2T8 (11738714_s_at) / RFU VCAN (11748164_a_at) / Fold change /veh VCAN (11748164_a_at) / RFU JSRP1 (11732532_at) / Fold change /veh JSRP1 (11732532_at) / RFU KRTAP10-11 (11738290_x_at) / Fold change /veh KRTAP10-11 (11738290_x_at) / RFU MYO3A (11730013_a_at) / Fold change /veh MYO3A (11730013_a_at) / RFU EBF3 (11725865_a_at) / Fold change /veh EBF3 (11725865_a_at) / RFU CAMK2N1 (11719241_x_at) / Fold change /veh CAMK2N1 (11719241_x_at) / RFU C5orf56 (11738088_a_at) / Fold change /veh C5orf56 (11738088_a_at) / RFU OLFML3 (11715873_a_at) / Fold change /veh OLFML3 (11715873_a_at) / RFU LOC100653217 /// NTM (11731650_a_at) / Fold change /veh LOC100653217 /// NTM (11731650_a_at) / RFU MAPK11 (11762145_a_at) / Fold change /veh MAPK11 (11762145_a_at) / RFU FIZ1 (11724087_x_at) / Fold change /veh FIZ1 (11724087_x_at) / RFU OASL (11726364_x_at) / Fold change /veh OASL (11726364_x_at) / RFU SOX15 (11748057_x_at) / Fold change /veh SOX15 (11748057_x_at) / RFU CD79A (11719716_a_at) / Fold change /veh CD79A (11719716_a_at) / RFU HIST1H1D (11736915_at) / Fold change /veh HIST1H1D (11736915_at) / RFU CASKIN2 (11723855_a_at) / Fold change /veh CASKIN2 (11723855_a_at) / RFU LOC730098 (11760151_x_at) / Fold change /veh LOC730098 (11760151_x_at) / RFU OR4N2 (11742367_at) / Fold change /veh OR4N2 (11742367_at) / RFU PRRT2 (11749266_a_at) / Fold change /veh PRRT2 (11749266_a_at) / RFU SNX32 (11753110_a_at) / Fold change /veh SNX32 (11753110_a_at) / RFU CDHR5 (11726645_a_at) / Fold change /veh CDHR5 (11726645_a_at) / RFU RCAN1 (11760418_a_at) / Fold change /veh RCAN1 (11760418_a_at) / RFU FAM167A (11723789_a_at) / Fold change /veh FAM167A (11723789_a_at) / RFU FAM26E (11764081_at) / Fold change /veh FAM26E (11764081_at) / RFU ISYNA1 (11749810_s_at) / Fold change /veh ISYNA1 (11749810_s_at) / RFU ACY1 (11761880_at) / Fold change /veh ACY1 (11761880_at) / RFU 11764098_at / Fold change /veh 11764098_at / RFU SAMD14 (11745864_x_at) / Fold change /veh SAMD14 (11745864_x_at) / RFU NPB (11741838_a_at) / Fold change /veh NPB (11741838_a_at) / RFU TMPRSS6 (11731388_a_at) / Fold change /veh TMPRSS6 (11731388_a_at) / RFU KRTAP10-2 (11738614_at) / Fold change /veh KRTAP10-2 (11738614_at) / RFU ARHGAP8 /// PRR5-ARHGAP8 (11727945_x_at) / Fold change /veh ARHGAP8 /// PRR5-ARHGAP8 (11727945_x_at) / RFU KRTAP5-7 /// NADSYN1 (11734609_at) / Fold change /veh KRTAP5-7 /// NADSYN1 (11734609_at) / RFU RASL12 (11751679_a_at) / Fold change /veh RASL12 (11751679_a_at) / RFU CDKN2B (11736163_a_at) / Fold change /veh CDKN2B (11736163_a_at) / RFU PRF1 (11729649_at) / Fold change /veh PRF1 (11729649_at) / RFU, ZNF638 /// ZNF638-IT1 / Fold change vs veh, ZNF638 /// ZNF638-IT1 / RFU, PANK3 / Fold change vs veh, PANK3 / RFU, SH3YL1 / Fold change vs veh, SH3YL1 / RFU, ZEB2 / Fold change vs veh, ZEB2 / RFU, NRIP1 / Fold change vs veh, NRIP1 / RFU, PTTG1IP / Fold change vs veh, PTTG1IP / RFU, CAPN2 / Fold change vs veh, CAPN2 / RFU, MED14 / Fold change vs veh, MED14 / RFU, SNORA58 / Fold change vs veh, SNORA58 / RFU, C1orf63 / Fold change vs veh, C1orf63 / RFU, LRRFIP1 / Fold change vs veh, LRRFIP1 / RFU, NDUFAF7 / Fold change vs veh, NDUFAF7 / RFU, SLC12A2 / Fold change vs veh, SLC12A2 / RFU, IBTK / Fold change vs veh, IBTK / RFU, ESF1 / Fold change vs veh, ESF1 / Fold change vs veh, TMEM50B / RFU, TAOK1 / Fold change vs veh, TAOK1 / RFU, ACBD3 / Fold change vs veh, ACBD3 / RFU, TMA16 / Fold change vs veh, TMA16 / RFU, RWDD3 / Fold change vs veh, RWDD3 / RFU, BCAT1 / Fold change vs veh, BCAT1 / RFU, EDEM3 / Fold change vs veh, EDEM3 / RFU, TMEM33 / Fold change vs veh, TMEM33 / RFU, WDR75 / Fold change vs veh, WDR75 / RFU, AHCTF1 / Fold change vs veh, AHCTF1 / RFU, TFRC / Fold change vs veh, TFRC / RFU, ZDHHC17 / Fold change vs veh, ZDHHC17 / RFU, NOM1 / Fold change vs veh, NOM1 / RFU, ARL8B / Fold change vs veh, ARL8B / RFU, ZBTB11 / Fold change vs veh, ZBTB11 / RFU, TAMM41 / Fold change vs veh, TAMM41 / RFU, KIAA1704 /// LOC100996395 / Fold change vs veh, KIAA1704 /// LOC100996395 / RFU, ING1 / Fold change vs veh, ING1 / RFU, TRMT61B / Fold change vs veh, TRMT61B / RFU, FUBP3 / Fold change vs veh, FUBP3 / RFU, TP53 / Fold change vs veh, TP53 / RFU, TNKS2 / Fold change vs veh, TNKS2 / RFU, ZFP14 / Fold change vs veh, ZFP14 / RFU, ACTR2 / Fold change vs veh, ACTR2 / RFU, PPP3R1 / Fold change vs veh, PPP3R1 / RFU, PIK3R1 / Fold change vs veh, PIK3R1 / RFU, HNRNPA1 / Fold change vs veh, HNRNPA1 / RFU, RNF170 / Fold change vs veh, RNF170 / RFU, ZNF28 / Fold change vs veh, ZNF28 / RFU, RNGTT / Fold change vs veh, RNGTT / RFU, OGT / Fold change vs veh, OGT / RFU, BRD1 / Fold change vs veh, BRD1 / RFU, MARS / Fold change vs veh, MARS / RFU, ZNF655 / Fold change vs veh, ZNF655 / RFU, FAHD1 / Fold change vs veh, FAHD1 / RFU, BDP1 / Fold change vs veh, BDP1 / RFU, LRRCC1 / Fold change vs veh, LRRCC1 / RFU, ARID1A / Fold change vs veh, ARID1A / RFU, ZNF146 / Fold change vs veh, ZNF146 / RFU, ZNF330 / Fold change vs veh, ZNF330 / RFU, GPN3 / Fold change vs veh, GPN3 / RFU, C9orf123 / Fold change vs veh, C9orf123 / RFU, N4BP2L2 / Fold change vs veh, N4BP2L2 / RFU, ARFIP1 / Fold change vs veh, ARFIP1 / RFU, FAM179B / Fold change vs veh, FAM179B / RFU, BCL10 / Fold change vs veh, BCL10 / RFU, UHRF1BP1L / Fold change vs veh, UHRF1BP1L / RFU, BET1 / Fold change vs veh, BET1 / RFU, CNOT2 / Fold change vs veh, CNOT2 / RFU, ZNF268 / Fold change vs veh, ZNF268 / Fold change vs veh, ZNF507 / RFU, DGCR2 / Fold change vs veh, DGCR2 / RFU, WDSUB1 / Fold change vs veh, WDSUB1 / Fold change vs veh, HSP90B1 /// MIR3652 / RFU, ADSS / Fold change vs veh, ADSS / RFU, GK / Fold change vs veh, GK / RFU, ZNF148 / Fold change vs veh, ZNF148 / RFU, TAF9 / Fold change vs veh, TAF9 / RFU, SLC1A5 / Fold change vs veh, SLC1A5 / RFU, SLMO2 / Fold change vs veh, SLMO2 / RFU, ABCC4 / Fold change vs veh, ABCC4 / RFU, LOC101060439 /// RAP1B / Fold change vs veh, LOC101060439 /// RAP1B / RFU, RFX7 / Fold change vs veh, RFX7 / RFU, GTPBP10 / Fold change vs veh, GTPBP10 / RFU, CNEP1R1 / Fold change vs veh, CNEP1R1 / RFU, BIVM-ERCC5 /// ERCC5 / Fold change vs veh, BIVM-ERCC5 /// ERCC5 / RFU, ILF3 / Fold change vs veh, ILF3 / RFU 11762660_at / Fold change /veh 11762660_at / RFU VCAN (11757783_s_at) / Fold change /veh VCAN (11757783_s_at) / RFU DDX43 (11728927_at) / Fold change /veh DDX43 (11728927_at) / RFU KRT8 (11758188_x_at) / Fold change /veh KRT8 (11758188_x_at) / RFU NKD1 (11759106_at) / Fold change /veh NKD1 (11759106_at) / RFU SRD5A1 (11742802_a_at) / Fold change /veh SRD5A1 (11742802_a_at) / RFU TPSAB1 /// TPSB2 (11721975_s_at) / Fold change /veh TPSAB1 /// TPSB2 (11721975_s_at) / RFU GSTM3 (11746129_a_at) / Fold change /veh GSTM3 (11746129_a_at) / RFU IL23R (11737362_x_at) / Fold change /veh IL23R (11737362_x_at) / RFU TMEM51 (11727254_a_at) / Fold change /veh TMEM51 (11727254_a_at) / RFU PIWIL2 (11732686_x_at) / Fold change /veh PIWIL2 (11732686_x_at) / RFU ORM1 (11744905_x_at) / Fold change /veh ORM1 (11744905_x_at) / RFU CCDC152 (11743942_at) / Fold change /veh CCDC152 (11743942_at) / RFU ECM1 (11717891_a_at) / Fold change /veh ECM1 (11717891_a_at) / RFU IL23R (11748794_a_at) / Fold change /veh IL23R (11748794_a_at) / RFU TNFAIP8L3 (11732012_x_at) / Fold change /veh TNFAIP8L3 (11732012_x_at) / RFU MBOAT4 (11741988_at) / Fold change /veh MBOAT4 (11741988_at) / RFU 11764193_at / Fold change /veh 11764193_at / RFU TMEM53 (11763286_at) / Fold change /veh TMEM53 (11763286_at) / RFU MAGEB2 (11727129_at) / Fold change /veh MAGEB2 (11727129_at) / RFU TMEM200A (11744735_a_at) / Fold change /veh TMEM200A (11744735_a_at) / RFU CCDC152 (11751479_a_at) / Fold change /veh CCDC152 (11751479_a_at) / RFU FAM211A (11726209_a_at) / Fold change /veh FAM211A (11726209_a_at) / RFU RGS16 (11746705_a_at) / Fold change /veh RGS16 (11746705_a_at) / RFU VCAN (11755009_s_at) / Fold change /veh VCAN (11755009_s_at) / RFU RHOB (11743442_s_at) / Fold change /veh RHOB (11743442_s_at) / RFU RGS16 (11720943_a_at) / Fold change /veh RGS16 (11720943_a_at) / RFU RGS16 (11720944_at) / Fold change /veh RGS16 (11720944_at) / RFU, VPS4B / Fold change vs veh, VPS4B / RFU, CREB1 / Fold change vs veh, CREB1 / RFU, DNAJC13 / Fold change vs veh, DNAJC13 / RFU, GNAQ / Fold change vs veh, GNAQ / RFU, CDK5R1 / Fold change vs veh, CDK5R1 / RFU, ZRANB3 / Fold change vs veh, ZRANB3 / RFU, CUL4A / Fold change vs veh, CUL4A / RFU, CCNY / Fold change vs veh, CCNY / RFU, UFL1 / Fold change vs veh, UFL1 / RFU, COG3 / Fold change vs veh, COG3 / RFU, DIAPH2 / Fold change vs veh, DIAPH2 / RFU, SKA2 / Fold change vs veh, SKA2 / RFU, AFF3 / Fold change vs veh, AFF3 / RFU, LMF1 / Fold change vs veh, LMF1 / RFU, IPO11 / Fold change vs veh, IPO11 / RFU, DFFB / Fold change vs veh, DFFB / RFU, FOXP1 / Fold change vs veh, FOXP1 / RFU, CARD8 / Fold change vs veh, CARD8 / RFU, STRN3 / Fold change vs veh, STRN3 / RFU, ADK / Fold change vs veh, ADK / RFU, RASSF2 / Fold change vs veh, RASSF2 / RFU, WIPF1 / Fold change vs veh, WIPF1 / RFU, LARP1B / Fold change vs veh, LARP1B / RFU, RASA1 / Fold change vs veh, RASA1 / RFU, RB1 / Fold change vs veh, RB1 / RFU, PPFIA1 / Fold change vs veh, PPFIA1 / RFU, MAT2A / Fold change vs veh, MAT2A / RFU, CCT5 / Fold change vs veh, CCT5 / RFU, WDR92 / Fold change vs veh, WDR92 / RFU, CUX1 / Fold change vs veh, CUX1 / RFU, TTC7A / Fold change vs veh, TTC7A / RFU, TMEM135 / Fold change vs veh, TMEM135 / RFU, DEPTOR / Fold change vs veh, DEPTOR / RFU, CPM / Fold change vs veh, CPM / RFU, DNAJB6 / Fold change vs veh, DNAJB6 / RFU, CACNA2D3 / Fold change vs veh, CACNA2D3 / RFU, DTX4 / Fold change vs veh, DTX4 / RFU, TFCP2 / Fold change vs veh, TFCP2 / RFU, GMCL1 /// GMCL1P1 / Fold change vs veh, GMCL1 /// GMCL1P1 / RFU, AEBP2 / Fold change vs veh, AEBP2 / RFU, SNHG1 /// SNORD22 /// SNORD25 /// SNORD26 /// SNORD27 /// SNORD28 /// SNORD29 /// SNORD31 / Fold change vs veh, SNHG1 /// SNORD22 /// SNORD25 /// SNORD26 /// SNORD27 /// SNORD28 /// SNORD29 /// SNORD31 / Fold change (Aza/veh), C12orf56 (ProbeSet 11735607_a_at) / Fold change (ACY-1035/veh), C12orf56 (ProbeSet 11735607_a_at) / Fold change (Aza/veh), FGFR1OP (ProbeSet 11751329_s_at) / Fold change (ACY-1035/veh), FGFR1OP (ProbeSet 11751329_s_at) / Fold change (Aza/veh), VPS36 (ProbeSet 11739960_a_at) / Fold change (ACY-1035/veh), VPS36 (ProbeSet 11739960_a_at) / RFU SYPL1 (11715823_x_at) / Fold change /veh SYPL1 (11715823_x_at) / RFU IGFBP7 (11715501_s_at) / Fold change /veh IGFBP7 (11715501_s_at) / RFU REEP3 (11722064_at) / Fold change /veh REEP3 (11722064_at) / RFU IGLL1 (11728026_x_at) / Fold change /veh IGLL1 (11728026_x_at): dose or concentration left out as unconfirmed
Conditions: MV-4-11 cells, 48 hours

Nc1ncn([C@@H]2O[C@H](CO)[C@@H](O)[C@H]2O)c(=O)n1 [azacitidine]
RFU CCDC152 (11751479_a_at): 11.18 RFU

— paper PMC5218480 (PLoS ONE, 2017)
